In the supplement of paper PMC10307832:

Key:
Assay in all cases: relative viability (nuclei count vs DMSO), 5 days (fraction); higher = more cells survive
201T = test system: 201T
Method in brief: (§1)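 Relative viability equals treated-well nuclei counts divided by vehicle-well nuclei counts. Counts came from 4× images of lung cancer cell lines grown in 1536-well plates for 5 days after pin-tool dosing on the day after seeding. Dosing used one drug alone or a fixed anchor-drug dose plus five library-drug doses (not always all listed) in √10 steps, and values are medians of duplicate plates.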

BEN = test system: BEN
Method in brief: as §1

CAL-12T = test system: CAL-12T
Method in brief: as §1

COR-L 105 = test system: COR-L 105
Method in brief: as §1

H3255 = test system: H3255
Method in brief: as §1

HARA = test system: HARA
Method in brief: as §1

HCC-15 = test system: HCC-15
Method in brief: as §1

HCC-827 = test system: HCC-827
Method in brief: as §1

LC-2-ad = test system: LC-2-ad
Method in brief: as §1

LCLC-103H = test system: LCLC-103H
Method in brief: as §1

LK-2 = test system: LK-2
Method in brief: as §1

LU99A = test system: LU99A
Method in brief: as §1

LXF-289 = test system: LXF-289
Method in brief: as §1

NCI-H1437 = test system: NCI-H1437
Method in brief: as §1

NCI-H1651 = test system: NCI-H1651
Method in brief: as §1

NCI-H1792 = test system: NCI-H1792
Method in brief: as §1

NCI-H2085 = test system: NCI-H2085
Method in brief: as §1

NCI-H2228 = test system: NCI-H2228
Method in brief: as §1

NCI-H23 = test system: NCI-H23
Method in brief: as §1

NCI-H2405 = test system: NCI-H2405
Method in brief: as §1

NCI-H322M = test system: NCI-H322M
Method in brief: as §1

RERF-LC-KJ = test system: RERF-LC-KJ
Method in brief: as §1

UMC-11 = test system: UMC-11
Method in brief: as §1

For `O=C(O)CCCCC(CCSCc1ccccc1)SCc1ccccc1` (stereo not given) [CPI-613] + CC(=O)Nc1cccc(-n2c(=O)n(C3CC3)c(=O)c3c(Nc4ccc(I)cc4F)n(C)c(=O)c(C)c32)c1 [Trametinib] (partner 0.02 µM), the relative viability (201T; first compound 5 µM) was 0.709, the relative viability (201T; first compound 15.81 µM) was 0.701 and the relative viability (201T; first compound 50 µM) was 0.668. It also gave a relative viability (201T; first compound 158.11 µM) of 0.421, a relative viability (201T; first compound 500 µM) of 0.408 and a relative viability (BEN; first compound 5 µM) of 1.14. It also gave a relative viability (BEN; first compound 15.81 µM) of 0.976, a relative viability (BEN; first compound 50 µM) of 0.958 and a relative viability (BEN; first compound 158.11 µM) of 0.804. For the same molecule, the relative viability (BEN; first compound 500 µM) was 0.905, the relative viability (CAL-12T; first compound 5 µM) was 0.286 and the relative viability (CAL-12T; first compound 15.81 µM) was 0.309. For the same molecule, the relative viability (CAL-12T; first compound 50 µM) was 0.325, the relative viability (CAL-12T; first compound 158.11 µM) was 0.0954 and the relative viability (CAL-12T; first compound 500 µM) was 0.038. The relative viability (COR-L 105; first compound 5 µM) was 0.459, the relative viability (COR-L 105; first compound 15.81 µM) was 0.437 and the relative viability (COR-L 105; first compound 50 µM) was 0.479. The relative viability (COR-L 105; first compound 158.11 µM) was 0.355, the relative viability (COR-L 105; first compound 500 µM) was 0.225 and the relative viability (H3255; first compound 5 µM) was 0.61. It also gave a relative viability (H3255; first compound 15.81 µM) of 0.6, a relative viability (H3255; first compound 50 µM) of 0.654 and a relative viability (H3255; first compound 158.11 µM) of 0.62. It also gave a relative viability (H3255; first compound 500 µM) of 0.598, a relative viability (HARA; first compound 5 µM) of 0.805 and a relative viability (HARA; first compound 15.81 µM) of 0.57. It also gave a relative viability (HARA; first compound 50 µM) of 0.849, a relative viability (HARA; first compound 158.11 µM) of 0.362 and a relative viability (HARA; first compound 500 µM) of 0.0485. For the same molecule, the relative viability (HCC-15; first compound 5 µM) was 0.387, the relative viability (HCC-15; first compound 15.81 µM) was 0.363 and the relative viability (HCC-15; first compound 50 µM) was 0.363. It also gave a relative viability (HCC-15; first compound 158.11 µM) of 0.167, a relative viability (HCC-15; first compound 500 µM) of 0.0261 and a relative viability (HCC-827; first compound 5 µM) of 0.518. The relative viability (HCC-827; first compound 15.81 µM) was 0.555, the relative viability (HCC-827; first compound 50 µM) was 0.571 and the relative viability (HCC-827; first compound 158.11 µM) was 0.518. For the same molecule, the relative viability (HCC-827; first compound 500 µM) was 0.483, the relative viability (LC-2-ad; first compound 5 µM) was 0.857 and the relative viability (LC-2-ad; first compound 15.81 µM) was 0.899. The relative viability (LC-2-ad; first compound 50 µM) was 0.911, the relative viability (LC-2-ad; first compound 158.11 µM) was 0.695 and the relative viability (LC-2-ad; first compound 500 µM) was 0.0212. It also gave a relative viability (LCLC-103H; first compound 5 µM) of 0.67, a relative viability (LCLC-103H; first compound 15.81 µM) of 0.662 and a relative viability (LCLC-103H; first compound 50 µM) of 0.727. It also gave a relative viability (LCLC-103H; first compound 158.11 µM) of 0.422, a relative viability (LCLC-103H; first compound 500 µM) of 0.372 and a relative viability (LK-2; first compound 5 µM) of 0.702. For the same molecule, the relative viability (LK-2; first compound 15.81 µM) was 0.786, the relative viability (LK-2; first compound 50 µM) was 0.93 and the relative viability (LK-2; first compound 158.11 µM) was 0.856. It also gave a relative viability (LK-2; first compound 500 µM) of 0.792, a relative viability (LU99A; first compound 5 µM) of 0.51 and a relative viability (LU99A; first compound 15.81 µM) of 0.524. It also gave a relative viability (LU99A; first compound 50 µM) of 0.461, a relative viability (LU99A; first compound 158.11 µM) of 0.338 and a relative viability (LU99A; first compound 500 µM) of 0.357. The relative viability (LXF-289; first compound 5 µM) was 0.653, the relative viability (LXF-289; first compound 15.81 µM) was 0.659 and the relative viability (LXF-289; first compound 50 µM) was 0.665. The relative viability (LXF-289; first compound 158.11 µM) was 0.446, the relative viability (LXF-289; first compound 500 µM) was 0.572 and the relative viability (NCI-H1437; first compound 5 µM) was 0.49. The relative viability (NCI-H1437; first compound 15.81 µM) was 0.431, the relative viability (NCI-H1437; first compound 50 µM) was 0.467 and the relative viability (NCI-H1437; first compound 158.11 µM) was 0.0999. The relative viability (NCI-H1437; first compound 500 µM) was 0.0568, the relative viability (NCI-H1651; first compound 5 µM) was 0.771 and the relative viability (NCI-H1651; first compound 15.81 µM) was 0.771. It also gave a relative viability (NCI-H1651; first compound 50 µM) of 0.848, a relative viability (NCI-H1651; first compound 158.11 µM) of 0.783 and a relative viability (NCI-H1651; first compound 500 µM) of 0.765. The relative viability (NCI-H1792; first compound 5 µM) was 0.381, the relative viability (NCI-H1792; first compound 15.81 µM) was 0.372 and the relative viability (NCI-H1792; first compound 50 µM) was 0.355. The relative viability (NCI-H1792; first compound 158.11 µM) was 0.291, the relative viability (NCI-H1792; first compound 500 µM) was 0.0761 and the relative viability (NCI-H2085; first compound 5 µM) was 0.664. It also gave a relative viability (NCI-H2085; first compound 15.81 µM) of 0.555, a relative viability (NCI-H2085; first compound 50 µM) of 0.6 and a relative viability (NCI-H2085; first compound 158.11 µM) of 0.216. It also gave a relative viability (NCI-H2085; first compound 500 µM) of 0.12, a relative viability (NCI-H2228; first compound 5 µM) of 0.549 and a relative viability (NCI-H2228; first compound 15.81 µM) of 0.393. The relative viability (NCI-H2228; first compound 50 µM) was 0.343, the relative viability (NCI-H2228; first compound 158.11 µM) was 0.452 and the relative viability (NCI-H2228; first compound 500 µM) was 0.052. For the same molecule, the relative viability (NCI-H23; first compound 5 µM) was 0.394, the relative viability (NCI-H23; first compound 15.81 µM) was 0.25 and the relative viability (NCI-H23; first compound 50 µM) was 0.393. It also gave a relative viability (NCI-H23; first compound 158.11 µM) of 0.11, a relative viability (NCI-H23; first compound 500 µM) of 0.0106 and a relative viability (NCI-H2405; first compound 5 µM) of 0.633. The relative viability (NCI-H2405; first compound 15.81 µM) was 0.633, the relative viability (NCI-H2405; first compound 50 µM) was 0.619 and the relative viability (NCI-H2405; first compound 158.11 µM) was 0.494. It also gave a relative viability (NCI-H2405; first compound 500 µM) of 0.479, a relative viability (NCI-H322M; first compound 5 µM) of 0.427 and a relative viability (NCI-H322M; first compound 15.81 µM) of 0.485. The relative viability (NCI-H322M; first compound 50 µM) was 0.454, the relative viability (NCI-H322M; first compound 158.11 µM) was 0.516 and the relative viability (NCI-H322M; first compound 500 µM) was 0.514. The relative viability (RERF-LC-KJ; first compound 5 µM) was 0.76, the relative viability (RERF-LC-KJ; first compound 15.81 µM) was 0.878 and the relative viability (RERF-LC-KJ; first compound 50 µM) was 0.845. The relative viability (RERF-LC-KJ; first compound 158.11 µM) was 0.458, the relative viability (RERF-LC-KJ; first compound 500 µM) was 0.44 and the relative viability (UMC-11; first compound 5 µM) was 0.632. For the same molecule, the relative viability (UMC-11; first compound 15.81 µM) was 0.703, the relative viability (UMC-11; first compound 50 µM) was 0.437 and the relative viability (UMC-11; first compound 158.11 µM) was 0.495. For the same molecule, the relative viability (UMC-11; first compound 500 µM) was 0.0937.
